# Values of other authors as cited in publication PMC6271218, “Pharmacokinetics, Tissue Distribution and Excretion of Verticinone from F. hupehensis in Rats” (Molecules, 2014).
# Design: method as in PMID 20446906
# Conditions: same dose administered; cited from earlier work
structure (smiles),measurement,value
C[C@@H](Oc1cc(-c2cnn(C3CCNCC3)c2)cnc1N)c1c(Cl)ccc(F)c1Cl [PF-02341066],"plasma concentrations, fold higher in male than in female rats",at least 2 fold
